Some test systems named below: NCI-H522; SW-620; SR; NCI-H226; MCF7; LOX IMVI; MDA-MB-435; DU-145; COLO 205; PC-3; SN12C; NCI/ADR-RES; OVCAR-4; EKVX; NCI-H23; HL-60; MDA-MB-231; SK-MEL-2; A549.
Test in all cases: NCI-60 cell line screen, 48 h

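All cell lines were grown in 96-well plates and treated with compound for 48 hours. The concentration for 50% growth inhibition is given as GI50.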 Activity calls are given as the source filed them. Cut-off read from the data, not from the text of the source: active = GI50 up to about 1.1 µM and inactive = higher.

On to `COC(=O)C(Cc1ccccc1)C(=O)NC(CNC(=O)OCc1ccccc1)C(=O)OCc1ccccc1` (centres undefined), for which the GI50 in the test on NCI-H522 was 26.7 µM (inactive); in the test with SW-620, 38.1 µM (inactive); with SR it was 24 µM (inactive); with NCI-H226 it was 32.1 µM (inactive); in the test with MCF7, > 100 µM (inactive); with LOX IMVI, 19.6 µM (inactive). The GI50 with MDA-MB-435 was 21.8 µM (inactive); in the test on DU-145, 66.5 µM (inactive); with COLO 205 it was 19.8 µM (inactive); with PC-3, 38.2 µM (inactive); in the test with SN12C, 49.8 µM (inactive); with NCI/ADR-RES, 27 µM (inactive). Moreover, the GI50 was 38.3 µM (inactive) in the test on OVCAR-4; 76.7 µM (inactive) in the test on EKVX; 43.6 µM (inactive) with NCI-H23; 30.9 µM (inactive) with HL-60; 20.8 µM (inactive) with MDA-MB-231; 24.1 µM (inactive) with SK-MEL-2.
Regarding `COc1cccc(N2C(=O)/C(=C\c3ccccc3)SC2c2cc(OC)c(OC)c(OC)c2)c1` (centres undefined), the GI50 in the test on NCI-H522 was 22.2 µM (inactive); in the test on SR, 26.3 µM (inactive); in the test with A549, 64.1 µM (inactive); in the test on NCI-H226 it was > 100 µM (inactive); in the test on MCF7, 42.4 µM (inactive); in the test with LOX IMVI, 37.8 µM (inactive). Also, the GI50 in the test on MDA-MB-435 is 22.6 µM (inactive); in the test on DU-145, 41.2 µM (inactive); with COLO 205, 39.7 µM (inactive); in the test on PC-3 it was 46.5 µM (inactive); with SN12C, 52 µM (inactive); with NCI/ADR-RES it was 41.9 µM (inactive). For the same compound, the GI50 is 46.5 µM (inactive) in the test with OVCAR-4; 44.2 µM (inactive) in the test on EKVX; 52.6 µM (inactive) in the test with NCI-H23; 36 µM (inactive) in the test on HL-60; 98.2 µM (inactive) with MDA-MB-231; 62.1 µM (inactive) in the test on SK-MEL-2.
For the compound `N#Cc1cc2c(n(C3OC(CO)C(O)C(O)C3O)c1=S)CCCCC2` (centres undefined), the GI50 in the test on NCI-H522, in the test with SR, in the test on A549, with NCI-H226, in the test on MCF7 and in the test on LOX IMVI was > 100 µM (inactive) each time. In addition, the GI50 with MDA-MB-435, in the test with DU-145, with COLO 205, in the test on PC-3, in the test on SN12C and with NCI/ADR-RES was > 100 µM (inactive) throughout. The GI50 in the test on OVCAR-4, in the test on NCI-H23, in the test with HL-60, in the test on MDA-MB-231 and with SK-MEL-2 was > 100 µM (inactive) each time.
In the case of `Nn1c(SCC(=O)O)nc2ccccc2c1=O`, the GI50 in the test on NCI-H522, in the test on SW-620, with SR, with A549, with NCI-H226 and in the test with MCF7 was > 100 µM (inactive) each time. Further, the GI50 in the test with LOX IMVI, with MDA-MB-435, in the test with DU-145, in the test with COLO 205, in the test on PC-3 and with SN12C was > 100 µM (inactive) throughout. The GI50 with NCI/ADR-RES, with OVCAR-4, in the test with EKVX, in the test on NCI-H23, with MDA-MB-231 and in the test on SK-MEL-2 was > 100 µM (inactive) throughout.
Take `COc1ccc(C(NCCNC(c2ccc(OC)c(OC)c2)c2cc3c(cc2O)OCO3)c2cc3c(cc2O)OCO3)cc1OC` (centres undefined): the GI50 with NCI-H522 is 1.74 µM (inactive); with SW-620, 1.29 µM (inactive); with SR, 0.682 µM (active); in the test on A549 it was 12.2 µM (inactive); with NCI-H226, 8.02 µM (inactive); in the test on MCF7, 1.42 µM (inactive). Also, the GI50 in the test with LOX IMVI was 1.8 µM (inactive); with MDA-MB-435, 1.87 µM (inactive); in the test with DU-145 it was 2.8 µM (inactive); with COLO 205 it was 2.89 µM (inactive); in the test on PC-3, 2.47 µM (inactive); in the test on SN12C it was 1.92 µM (inactive). For the same compound, the GI50 is 2.13 µM (inactive) with NCI/ADR-RES; 4.83 µM (inactive) in the test on OVCAR-4; 6.22 µM (inactive) in the test with EKVX; 2.51 µM (inactive) in the test with NCI-H23; 1.71 µM (inactive) with HL-60; 3.13 µM (inactive) in the test with MDA-MB-231. Besides, in the test with SK-MEL-2, the GI50 was 6.81 µM (inactive).
On to `C/C(=N\Nc1nc2cc(F)ccc2s1)c1ccccn1`, for which the GI50 with NCI-H522 was < 0.01 µM (active); in the test with SW-620, < 0.01 µM (active); in the test with SR, 0.0313 µM (active); with A549 it was 0.26 µM (active); in the test with NCI-H226, < 0.0242 µM (active); in the test with MCF7, 0.0199 µM (active). The GI50 is 0.303 µM (active) in the test with MDA-MB-435; 0.344 µM (active) in the test on DU-145; < 0.01 µM (active) in the test with COLO 205; 0.0395 µM (active) in the test on PC-3; 0.0101 µM (active) with SN12C; 0.0274 µM (active) in the test on NCI/ADR-RES. The GI50 with OVCAR-4 is 1.06 µM (active); in the test with EKVX, < 0.0141 µM (active); in the test with NCI-H23, 0.0352 µM (active); with HL-60, < 0.01 µM (active); in the test on MDA-MB-231, 0.0389 µM (active); in the test with SK-MEL-2, 1.54 µM (inactive).
As to `COc1ccc(CNNC(=O)c2cc[n+]([BH2-]C#N)cc2)cc1OC`, the GI50 in the test with NCI-H522, in the test with SW-620, in the test with SR, with A549, in the test with NCI-H226 and in the test with MCF7 was > 100 µM (inactive) in each case. For the same compound, the GI50 with LOX IMVI, with MDA-MB-435, in the test on DU-145, with COLO 205, in the test with PC-3 and in the test on SN12C was > 100 µM (inactive) in each case. Moreover, the GI50 in the test on NCI/ADR-RES, with OVCAR-4, in the test with EKVX, in the test on HL-60, in the test with MDA-MB-231 and with SK-MEL-2 was > 100 µM (inactive) in each case.
Take `CC(C)(S)C(N)C(=O)O` (stereo not drawn) [DL-PENICILLAMINE]: the GI50 with NCI-H522, with SW-620, in the test with SR, with A549, with NCI-H226 and with MCF7 was > 100 µM (inactive) each time. Further, the GI50 in the test on LOX IMVI, with MDA-MB-435, in the test on DU-145, in the test with COLO 205, in the test with PC-3 and in the test with SN12C was > 100 µM (inactive) each time. The GI50 in the test on NCI/ADR-RES, in the test on OVCAR-4, in the test with EKVX, with NCI-H23, with MDA-MB-231 and with SK-MEL-2 was > 100 µM (inactive) in each case.
